Patent publication US20070184098A1, “Esters of flavonoids with w-substituted c6-c22 fatty acids” (priority 2003, published 2007)
Several values for one entry are separate records, joined by “and”; a condition that tells them apart may be missing. Equal entries are not always repeated. Where two headings read alike, the source gives them in different places.

Legend:
Human fibroblasts = assay: UVA cytophotoprotection, anti-oxidative effect (MDA released, cell proteins, GSH) on UVA-irradiated human fibroblasts; assay type: cell-based; conditions: UVA 20 J/cm2; for Cell GSH/protein ratio: irradiated control = 78, not irradiated = 100; for MDA released: irradiated control = 100, not irradiated = 0; for Cell proteins: irradiated control = 107, not irradiated = 100
Experimental: The cytoprotection against UVA irradiation has been evaluated by a test on human fibroblasts because UVA radiation penetrates through the epidermis until the dermis where it induces oxidative stress, mainly by activation of photosensitising biological components, which catalyse the formation of ROS like anion superoxide, hydrogen peroxide and singlet oxygen, and lipoperoxydation of the cell membrane. These oxidative stress effects are evaluated in vitro due to measuring of the level of released MDA (malondialdehyde) and of intracellular GSH (reduced glutathion) (Morliere P., Moisan A., Santus R., Huppe G., Mazière J. C., Dubertret L.: UV-A induced lipid peroxydation in cultured human fibroblasts Biochim. Biophys. Acta (1991) 1084, 3:261-269).
The lipoperoxides formed after UVA irradiation undergo a decay into malondialdehyde which can form cross-links between many biological molecules like proteins with inhibition of enzymes and nucleic bases with risk of mutagenesis. Glutathione (GSH) is a peptide produced by the cells to protect them from oxidative stress or certain pollutants like mercury or lead. An increase in the GSH level enhances the activity of glutathion-S-transferase, a detoxification enzyme. GSH is evaluated according to the method of Hissin (Hissin P. J., Hilf R. A fluorometric method for determination of oxydised and reduced Glutathione in tissues. Analytical Biochemistry (1977) vol 74, pp 214-226).
Human fibroblasts were inoculated with growth medium (DMEM+FCS) and incubated 3 days at 37° C., with 5% CO2. The growth medium was then exchanged with medium containing an ingredient to be tested and incubated 2 days at 37° C. with CO2=5%. After an exchange of medium with balanced salt solution, the cell culture was irradiated by UVA 20 J/cm^2. Cell proteins and GSH were measured, and MDA released in the supernatant was determined spectrophotometrically.

Lipoxygenase = assay: Anti-free radical activity: superoxide anions released by lipoxygenase, Luminol probe; assay type: biochemical; conditions: mean of 2 assays; lipoxygenase with unsaturated fatty acid substrate
Experimental: The anti-free radical (anti-FR) activity has been evaluated by biochemical tests to address the potential for scavenging superoxide anion (O2°).
Lipoxygenase was incubated with a specific substrate (unsaturated fatty acid) and the flavonoid esters. Then the rate of released superoxide anions was determined using Luminol luminescent probe to calculate the IC50 (mean of 2 assays).

Human keratinocytes = assay: UVB cytophotoprotection and anti-inflammatory effect (DNA, LDH and PGE2 released) on UVB-irradiated human keratinocytes; assay type: cell-based; conditions: UVB 50 mJ/cm2; for Keratinocytes DNA: irradiated control = 23, not irradiated = 100; for LDH released / PGE2 released: irradiated control = 100, not irradiated = 0
Source text: The arachidonic cascade is an important mechanism of cutaneous inflammation. This cascade may be induced by several factors, particularly by UVB irradiation. UVB induces the inflammatory response by activation of phospholipase A2 (PLA2), which results in a release of arachidonic acid from cell membranes. Then other specific enzymes (so called cyclo-oxygenases) transform arachidonic acid in active components called prostaglandin (PG) which are secreted from the cells. The fixation of certain prostaglandins (PGE2) on specific skin receptors is followed by redness and swelling on human skin. On cultured human cells, these UVB effects on cell's membrane are associated with a release of a cytoplasmic enzyme into the supernatant medium: Lactate Dehydrogenase or LDH.
Human keratinocytes were inoculated with growth medium (DMEM+FCS) and incubated 3 days at 37° C. and 5% CO2. The growth medium was then exchanged with balanced salt solution containing the ingredient to be tested, the cell culture was irradiated by UVB 50 mJ/cm^2 (DUKE GL40E lamp). After 1 day of incubation at 37° C. with 5% CO2, LDH and PGE2 released in the medium were determined, and cellular DNA was measured using a fluorescent probe to determine the cell viability.

[1] = Solubility in hydrophilic and lipophilic solvent by HPLC; assay type: physicochemical; conditions: stirring 1 hour at room temperature; for solubility at 1 h: thermodynamic from solid
Experimental: The solubility was determined by HPLC measurement after stirring during 1 hour at room temperature.

IC50 (w/v), released superoxide anions (Lipoxygenase) [w/v] | Solubility in butylene glycol [1] | Solubility in octyl-dodecanol [1] | Molecule | Cell GSH/protein ratio (Human fibroblasts; dose 0.001 % w/v) [% against control] | MDA released (Human fibroblasts; dose 0.001 % w/v) [% against control] | Cell proteins (Human fibroblasts; dose 0.001 % w/v) [% against control] | Cell GSH/protein ratio (Human fibroblasts; dose 0.003 % w/v) [% against control] | MDA released (Human fibroblasts; dose 0.003 % w/v) [% against control] | Cell proteins (Human fibroblasts; dose 0.003 % w/v) [% against control] | Keratinocytes DNA (Human keratinocytes; dose 0.001 % w/v) [% against control] | LDH released (Human keratinocytes; dose 0.001 % w/v) [% against control] | PGE2 released (Human keratinocytes; dose 0.001 % w/v) [% against control] | Keratinocytes DNA (Human keratinocytes; dose 0.003 % w/v) [% against control] | LDH released (Human keratinocytes; dose 0.003 % w/v) [% against control] | PGE2 released (Human keratinocytes; dose 0.003 % w/v) [% against control] | Keratinocytes DNA (Human keratinocytes; dose 0.01 % w/v) [% against control] | LDH released (Human keratinocytes; dose 0.01 % w/v) [% against control] | PGE2 released (Human keratinocytes; dose 0.01 % w/v) [% against control] | Cell GSH/protein ratio (Human fibroblasts; dose 0.01 % w/v) [% against control] | MDA released (Human fibroblasts; dose 0.01 % w/v) [% against control] | also measured
0.0028 |  |  | CC1OC(OCC2OC(Oc3c(-c4ccc(O)c(O)c4)oc4cc(O)cc(O)c4c3=O)C(O)C(O)C2O)C(O)C(O)C1OC(=O)CCCCCCCCCCCCCCC(=O)OC1C(C)OC(OCC2OC(Oc3c(-c4ccc(O)c(O)c4)oc4cc(O)cc(O)c4c3=O)C(O)C(O)C2O)C(O)C1O (stereo not drawn) [Dirutin hexadecandioate, dirutin hexadecandioate] | 98 | 39 | 138 | 154 | 9 | 149 | 38 | 44 | 3 | 35 | 33 | 1 |  |  |  |  |  | 
0.0034 |  |  | Rutin octadecandioate | 73 | 46 | 139 | 122 | 15 | 133 | 23 | 73 | 28 | 49 | 31 | 3 |  |  |  |  |  | 

Second part, the molecule before the results:

Molecule | IC50 (w/v), released superoxide anions (Lipoxygenase) [w/v] | Solubility in butylene glycol [1] | Solubility in octyl-dodecanol [1] | Cell GSH/protein ratio (Human fibroblasts; dose 0.001 % w/v) [% against control] | MDA released (Human fibroblasts; dose 0.001 % w/v) [% against control] | Cell proteins (Human fibroblasts; dose 0.001 % w/v) [% against control] | Cell GSH/protein ratio (Human fibroblasts; dose 0.003 % w/v) [% against control] | MDA released (Human fibroblasts; dose 0.003 % w/v) [% against control] | Cell proteins (Human fibroblasts; dose 0.003 % w/v) [% against control] | Keratinocytes DNA (Human keratinocytes; dose 0.001 % w/v) [% against control] | LDH released (Human keratinocytes; dose 0.001 % w/v) [% against control] | PGE2 released (Human keratinocytes; dose 0.001 % w/v) [% against control] | Keratinocytes DNA (Human keratinocytes; dose 0.003 % w/v) [% against control] | LDH released (Human keratinocytes; dose 0.003 % w/v) [% against control] | PGE2 released (Human keratinocytes; dose 0.003 % w/v) [% against control] | Keratinocytes DNA (Human keratinocytes; dose 0.01 % w/v) [% against control] | LDH released (Human keratinocytes; dose 0.01 % w/v) [% against control] | PGE2 released (Human keratinocytes; dose 0.01 % w/v) [% against control] | Cell GSH/protein ratio (Human fibroblasts; dose 0.01 % w/v) [% against control] | MDA released (Human fibroblasts; dose 0.01 % w/v) [% against control] | also measured
CC1OC(OCC2OC(Oc3c(-c4ccc(O)c(O)c4)oc4cc(O)cc(O)c4c3=O)C(O)C(O)C2O)C(O)C(O)C1OC(=O)CCCCCCCCCCS (stereo not drawn) [Rutin 11-mercaptoundecanoate] |  | 54.5 g/L and 67.2 mM | 0.15 g/L and 0.19 mM | 131 | 34 | 94 | 283 | 0 | 89 |  |  |  |  |  |  |  |  |  |  |  | Keratinocytes DNA (Human keratinocytes; dose 0.0001 % w/v): 44 % against control; LDH released (Human keratinocytes; dose 0.0001 % w/v): 75 % against control; PGE2 released (Human keratinocytes; dose 0.0001 % w/v): 26 % against control; Keratinocytes DNA (Human keratinocytes; dose 0.0003 % w/v): 41 % against control; LDH released (Human keratinocytes; dose 0.0003 % w/v): 92 % against control; PGE2 released (Human keratinocytes; dose 0.0003 % w/v): 12 % against control
CC1OC(OCC2OC(Oc3c(-c4ccc(O)c(O)c4)oc4cc(O)cc(O)c4c3=O)C(O)C(O)C2O)C(O)C(O)C1OC(=O)CCCCCCCC(=O)O (stereo not drawn) [Rutin azelaiate] | 0.0025 |  |  | 67 | 78 | 144 | 64 | 64 | 165 |  |  |  | 51 | 45 | 28 | 53 | 27 | 19 |  |  | 
CC1OC(OCC2OC(Oc3c(-c4ccc(O)c(O)c4)oc4cc(O)cc(O)c4c3=O)C(O)C(O)C2O)C(O)C(O)C1OC(=O)CCCCCCCCCCCCCCC(=O)O (stereo not drawn) [Rutin hexadecandioate, rutin hexadecandioate] | 0.0036 | 39.4 g/L and 44.7 mM | 0.13 g/L and 0.15 mM |  |  |  | 101 | 46 | 129 |  |  |  | 24 | 53 | 2 | 39 | 19 | 0 | 75 | 21 | Solubility in water [1]: 0.38 g/L and 0.43 mM; Cell proteins (Human fibroblasts; dose 0.01 % w/v): 178 % against control
C[C@@H]1O[C@@H](OC[C@H]2O[C@@H](Oc3c(-c4ccc(O)c(O)c4)oc4cc(O)cc(O)c4c3=O)[C@H](O)[C@@H](O)[C@@H]2O)[C@H](O)[C@H](O)[C@H]1O [Rutin, reference compound] |  |  |  |  |  |  | 72 | 79 | 126 |  |  |  |  |  |  |  |  |  | 71 | 72 | solubility at 1 h ([1]; butylene glycol, organic solvent or mixture, read-out: Solubility in butylene glycol): 22600 µg/mL and 37100 µM; solubility at 1 h ([1]; octyl-dodecanol, oil or lipid, read-out: Solubility in octyl-dodecanol): 30 µg/mL and 50 µM; solubility at 1 h ([1]; water, read-out: Solubility in water): 160 µg/mL and 270 µM; Cell proteins (Human fibroblasts; dose 0.01 % w/v): 128 % against control; Keratinocytes DNA (Human keratinocytes; dose 0.03 % w/v): 69 % against control; LDH released (Human keratinocytes; dose 0.03 % w/v): 17 % against control; PGE2 released (Human keratinocytes; dose 0.03 % w/v): 0 % against control; Keratinocytes DNA (Human keratinocytes; dose 0.1 % w/v): 73 % against control; LDH released (Human keratinocytes; dose 0.1 % w/v): 18 % against control; PGE2 released (Human keratinocytes; dose 0.1 % w/v): 10 % against control
